Like-named read-outs stand apart in the source and are kept apart here.
Assays:
Amyloid β-protein = assay: Screening of the degree of β-structure recognition (fluorescence, in the presence of Congo red); type: binding; details: test compound 5 µM, amyloid β-protein 5 µM, Congo red 0.1 µM, phosphate buffer pH 7.4
senile plaques = molecular target: T1, senile plaques (Homo sapiens, UniProt P05067); assay: Staining of senile plaques and diffuse plaques in brain sections, compared with thioflavin S, BSB or anti-Aβ antibody 6F/3D immunostaining; type: binding, patient with Alzheimer's disease; details: 100 µM compound in 50% ethanol; for staining properties in sections of the brain of a patient with Alzheimer's disease: compared with thioflavin S (and BSB) on adjacent sections; for staining properties compared with immunostaining of anti-Aβ antibody 6F/3D: adjacent sections immunostained with 6F/3D
T1 construct: The former has, as the main component, amyloid β-protein (Aβ protein) taking β-sheet structures; from tissue; host or cells: paraffin-embedded temporal lobe or hippocampus sections of an Alzheimer's disease patient's brain (Fukushimura Hospital)
T1 sequence (P05067 672-713 limits assumed): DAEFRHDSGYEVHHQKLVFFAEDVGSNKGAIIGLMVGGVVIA
Excerpt: The following explanation is made about testing of staining properties of the compounds of the present invention on brain sections of an Alzheimer's disease patient. • (1) Temporal lobe or hippocampus specimens of the brain of a patient who had been definitely diagnosed pathologically as Alzheimer's disease and of a normal aged individual were used. These specimens were provided from Fukushimura Hospital, our joint research facility, with the consent to their use for research purpose received from the bereaved family of the patient (BF Research Laboratories Institutional Ethics Board Permission No. RS-99-02). • (2) The brain tissues embedded in paraffin were sliced 6 or 8 µm thick, extended on slides, and dried. The paraffin-embedded brain sections were deparaffined by washing sequentially with xylene (10 minutes, twice), 100% ethanol (15 minutes, twice), 95% ethanol (15 minutes, twice), and a stream of water (10 minutes). • (3) Pre-treatment for staining with compounds of the present invention involved treating the sections for eliminating self-fluorescence due to lipofuscin. First, the deparaffined sections were immersed into a 10% formalin solution for 60 minutes and washed with PBS for 5 minutes, followed by immersion into a 0.25% solution of KMnO4 for 90 minutes. After washing twice with PBS for 2 minutes each, the sections were immersed into a solution of 0.1% K2S2O5/oxalic acid for about 30 seconds each, and then washed three times with PBS for 2 minutes each. • (4) About 150 µl of a 100 µM solution of a compound of the present invention dissolved in 50% ethanol was added dropwise onto the sections and allowed the reaction to be carried out for 10 minutes. The sections were dipped into tap water five times, and then 50% ethanol three to five times, followed by immediate classification. After that, the sections were immersed into PBS for 60 minutes, enclosed with Fluor Save Reagent (Calbiochem), and examined under a fluorescent microscope (Nikon, Eclips E800). Pictures were taken using a digital camera (Plaroid PDMCII).
Immunostaining was carried out as follows. • (a) Procedures for immunostaining amyloid β-protein: • (1) After the sections were deparaffined, the sections were washed twice in distilled water for 2 minutes each, and tissues were marked with an Immunopen. About 150 µl of formic acid was added dropwise and allowed to stand at room temperature for 5 minutes. The sections were washed with tap water for 5 minutes and immersed into cold PBS-Tween 20 for 2 minutes, and then about 150 µl of a 0.05% trypsin solution was added dropwise and allowed the reaction to be carried out at 37°C for 15 minutes. • (2) In an ice bath, the sections were washed twice with cold PBS-Tween 20 for 5 minutes each, and two drops of blocking serum were added and allowed the reaction to be carried out at 37°C for 15 minutes. Excess water was removed, and about 150 µl of 6F/3D, an antibody specific to amyloid β-protein (DAKO; diluted 1:50) was added dropwise and allowed the reaction to be carried out at 37°C for 1 hour. • (3) Further, after washing five times with cold PBS-Tween 20 for 2 minutes each, two drops of a solution of goat antimouse IgG (H+L) conjugated to biotin were added and allowed the reaction to be carried out at 37°C for 1 hour. After that, the sections were washed three times with cold PBS-Tween 20 for 2 minutes each, and two drops of ABS solution (a streptavidin-biotin-peroxidase complex solution) were added and allowed to stand for 30 minutes. The sections were again washed three times with cold PBS-Tween 20 for 2 minutes each, and about 150 µl of DAB solution (prepared by dissolving 10 mg of DAB in 20 ml of 0.05 mol/l Tris-HCl buffer and adding 100 µl of 3% hydrogen peroxide immediately before use) were added and allowed the color to be developed sufficiently. Then, the sections were washed with distilled water for 1 minute to stop the reaction, enclosed, and examined under a microscope.

[1] = Acute toxicity testing, intravenous administration; type: in vivo; details: male Crj:CD1 mice, via tail vein, observed up to 7 days; for MTD at 168 h: mouse, in vivo, iv, read-out: Maximum Tolerated Dose (mg/kg, intravenous administration)
Procedure: The following explanation is made of testing methods for properties of the compounds of the present invention. (A) Testing of acute toxicity Acute toxicity of the inventive compounds was determined employing mice by intravenous administration. Male Crj:CD1 mice were used and divided into groups of 4 mice, with an average weight of each group of 31-32 g. […] Up to 7 days after administration, observations were made.

[2] = mouse, in vivo, iv, 2 min
Procedure: (§1) (B) Testing of blood-brain barrier permeability Measurements of blood-brain barrier permeability were made according to the following procedures. Compounds of the present invention were intravenously administered to mice to determine their in vivo blood-brain barrier permeability. • (1) Mice utilized Slc:ICR weighing 30-40 g (7 weeks old, n=3) (Nippon SLC). • (2) A test compound was dissolved in a mixture of 1N HCl, polyethylene glycol 400, and DMSO, or in DMSO or ethyl alcohol, and then diluted with purified water, and injected via tail vein. Two minutes after administration, the mice, under ether anesthesia, were subjected to taking blood from the abdominal aorta with a heparin-treated syringe and removing the brain. • (3) After taking blood, blood samples were centrifuged at 14,000 rpm at 4°C for 10 minutes, and their supernatants were kept at -80°C as plasma sample. The brain (including cerebellum) was kept at -80°C after its removal. • (4) The plasma sample, when used, was thawed, diluted with purified water, and then applied to a conditioned C18 solid-phase extraction cartridge (bond elute C18, 200 mg, Varian), followed by elution with methyl alcohol. Alternatively, after thawing the plasma sample, a diethyl ether/cyclohexane mixture was added, and the mixture was shaken, and then centrifuged to separate an oil layer. • (5) The brain material, when used, was subjected to measuring its wet weight with the brain remaining frozen, and saline was added to the brain for homogenization. The homogenate was centrifuged for 10 minutes, and the supernatant was applied to a conditioned C18 solid-phase extraction cartridge and eluted with methyl alcohol. Alternatively, after measuring the wet weight of the frozen brain, a diethyl ether/cyclohexane mixture was added to the brain, and the mixture was homogenized, shaken, and then centrifuged to separate an oil layer. • (6) The absorbance and fluorescence were detected employing high performance liquid chromatography. • (7) For each of the plasma and brain, the content of the test compound in the plasma or brain (%ID (injected dose)/ml or g) was determined, relative to the administered dose.

[3] = Blood-brain barrier permeability after intravenous administration; details: for Plasma: mice, content in plasma two minutes after intravenous administration; for tissue uptake at 2 min: mouse, brain, iv
Procedure: as §1

Compound | Degree of β-structure recognition (%) (Amyloid β-protein) | staining properties in sections of the brain of a patient with Alzheimer's disease (senile plaques) | Maximum Tolerated Dose (mg/kg, intravenous administration) [1] | Brain [2] | Plasma [2] | staining properties compared with immunostaining of anti-Aβ antibody 6F/3D (senile plaques) | Plasma [3] | MTD at 168 h [1] [mg/kg] | tissue uptake at 2 min [3] [%ID/g]
2-[2-(5-dimethylaminothiazol-2-yl)ethenyl]benzoxazole [BF-215] | 82.6 | stains senile plaques | ≧ 10 mg/kg | 8.8 %ID/g or ml | 2.5 %ID/g or ml |  |  |  | 
CNc1ccc(/C=C/C=C/c2nc3ccccc3o2)cc1 [BF-185, 2-[[4-(4-methylamino)phenyl]-1,3-butadienyl)benzoxazole] | 82.7 | mainly stains senile plaques |  |  |  | stains senile plaques (Fig. 3, wedge-shaped arrowheads) and diffuse plaques | 1.0 %ID/g or ml |  | 
CNc1ccc(/C=C/C=C/c2nc3ccccc3s2)cc1 [BF-187, 2-[[4-(4-methylamino)phenyl]-1,3-butadienyl)benzothiazole] | 63.3 | stains senile plaques |  |  |  |  | 1.3 %ID/g or ml |  | 
CNc1ccc(/C=C/C=C/c2nc3ccccc3[nH]2)cc1 [BF-188, 2-[[4-(4-methylamino)phenyl]-1,3-butadienyl]benzoimidazole] | 68.9 | stains senile plaques |  |  |  |  | 1.7 %ID/g or ml |  | 
CNc1ccc(/C=C/C=C/C=C/c2ccc3ccccc3n2)cc1 [BF-189, 1-(4-methylaminophenyl)-6-(2-quinolyl)-1,3,5-hexatrien] | 79.8 | stains senile plaques |  |  |  |  |  | ≥ 10 | 
CN(C)c1ncc(/C=C/c2nc3ccccc3s2)s1 [BF-196, 2-[2-(2-dimethylaminothiazol-5-yl)ethenyl]benzothiazole] | 53.5 | mainly stains senile plaques |  |  |  | stains senile plaques | 1.8 %ID/g or ml |  | 19
CN(C)c1ncc(/C=C/c2nc3ccccc3o2)s1 [BF-197, 2-[2-(2-dimethylaminothiazol-5-yl)ethenyl]benzoxazole] | 71.8 | mainly stains senile plaques |  |  |  | stains senile plaques | 1.9 %ID/g or ml | ≥ 10 | 15
Nc1ccc(/C=C/C=C/c2nc3ccc(O)cc3o2)c(O)c1 [BF-201] | 82.0 | stains senile plaques |  |  |  | stains senile plaques |  |  | 
Cc1nc(/C=C/c2cnc(N(C)C)s2)oc1C [BF-214, 2-(dimethylamino)-5-[2-(4,5-dimethyloxazol-2-yl)ethenyl]thiazole] | 58.9 | stains senile plaques |  |  |  |  | 2.1 %ID/g or ml | ≥ 10 | 8.8
CN(C)c1ncc(/C=C/c2ccc3ccccc3n2)s1 [BF-222, 2-[2-(2-dimethylaminothiazol-5-yl)ethenyl]quinoline] | 62.3 |  |  |  |  |  | 2.0 %ID/g or ml | ≥ 10 | 13
CN(C)c1ncc(/C=C/c2nc3ccc(OCCF)cc3o2)s1 [BF-227, 2-[2-(2-dimethylaminothiazol-5-yl)ethenyl]-6-(2-fluoroethyloxy)benzoxazole] | 70.2 | mainly stains senile plaques |  |  |  | stains senile plaques (Fig. 16, wedge-shaped arrowheads) and diffuse plaques | 2.1 %ID/g or ml | ≥ 10 | 7.9
Cc1nc(/C=C/C=C/c2ccc(N(C)C)cc2)oc1C [BF-228, 2-[4-(4-dimethylaminophenyl)-1,3-butadienyl]-4,5-dimethyloxazole] | 83.8 |  |  |  |  |  |  | ≥ 10 | 
CN(C)c1ncc(/C=C/c2nc3ccccc3o2)o1 [BF-230, 2-[2-(2-dimethylaminooxazol-5-yl)ethenyl]benzoxazole] | 74.0 |  |  |  |  |  |  | ≥ 10 | 
CN(C)c1ncc(/C=C/C=C/c2nc3ccccc3[nH]2)s1 [BF-231, 2-[4-(2-dimethylaminothiazol-5-yl)-1,3-butadienyl]benzoimidazole] | 47.2 | stains senile plaques | ≧ 10 mg/kg |  |  |  |  |  | 
O=C(O)c1cc(/C=C/c2ccc(/C=C/c3ccc(O)c(C(=O)O)c3)c(Br)c2)ccc1O [BSB, (trans, trans)-1-bromo-2,5-bis-(3-hydroxycarbonyl-4-hydroxy)styrylbenzen, reference compound] |  | stains both senile plaques and neurofibrillary tangles |  |  |  |  |  |  | 
thioflavin S [reference compound] |  | stains both senile plaques and neurofibrillary tangles |  |  |  |  |  |  | 
